Tested on: not listed separately
Assay: Cytotoxicity against human Huh7.5 cells infected with HCV genotype 4a assessed as morphological changes after 72 hrs by inverted light microscopy
Assay type: cell-based, Huh-7
Conditions: not given

Row | SMILES | CC50 at 72 h
1 | CC(=O)Nc1c(C#N)c(-c2ccccc2)c(-c2ccccc2)n1C1CCCCC1 | 183 µM
2 | CC(=O)Nc1c(C#N)c(-c2ccccc2)c(-c2ccccc2)n1-c1cccc(Cl)c1 | 146 µM
3 | Cc1cc(C)n(-c2ncnc3c2c(-c2ccccc2)c(-c2ccccc2)n3-c2cccc(Cl)c2)n1 | 147 µM
4 | Cc1nc2c(c(-c3ccccc3)c(-c3ccccc3)n2-c2cccc(Cl)c2)c(=O)[nH]1 | 97 µM
5 | N#Cc1c(-c2ccccc2)c(-c2ccccc2)n(-c2cccc(Cl)c2)c1N | 189 µM
6 | Cc1ccccc1Nc1ncnc2c1c(-c1ccccc1)c(-c1ccccc1)n2-c1cccc(Cl)c1 | 144 µM
7 | Clc1ccc(-n2c(-c3ccccc3)c(-c3ccccc3)c3c(Cl)ncnc32)cc1 | 120 µM
8 | Clc1ccc(/C=N/Nc2ncnc3c2c(-c2ccccc2)c(-c2ccccc2)n3-c2cccc(Cl)c2)cc1 | 131 µM
9 | N#Cc1c(-c2ccccc2)c(-c2ccccc2)n(-c2ccc(Cl)cc2)c1N | 189 µM
10 | Clc1cccc(-n2c(-c3ccccc3)c(-c3ccccc3)c3c(Cl)ncnc32)c1 | 168 µM
11 | Cc1cccc(Nc2ncnc3c2c(-c2ccccc2)c(-c2ccccc2)n3-c2ccc(Cl)cc2)c1 | 1020 µM
12 | Cc1nc2c(c(-c3ccccc3)c(-c3ccccc3)n2-c2ccc(Cl)cc2)c(=O)[nH]1 | 97 µM
13 | Clc1cccc(-n2c(-c3ccccc3)c(-c3ccccc3)c3c(N/N=C/c4ccccc4)ncnc32)c1 | 140 µM
14 | Cc1ccc(Nc2ncnc3c2c(-c2ccccc2)c(-c2ccccc2)n3-c2ccc(Cl)cc2)cc1 | 123 µM
15 | Clc1ccc(-n2c(-c3ccccc3)c(-c3ccccc3)c3c(Nc4ccccc4)ncnc32)cc1 | 127 µM
16 | O=c1[nH]nc2c3c(-c4ccccc4)c(-c4ccccc4)n(-c4ccc(Cl)cc4)c3ncn12 | 160 µM
17 | S=c1[nH]nc2c3c(-c4ccccc4)c(-c4ccccc4)n(C4CCCCC4)c3ncn12 | 188 µM
18 | O=c1[nH]cnc2c1c(-c1ccccc1)c(-c1ccccc1)n2-c1cccc(Cl)c1 | 151 µM
19 | CC(=O)Nc1c(C#N)c(-c2ccccc2)c(-c2ccccc2)n1-c1ccc(Cl)cc1 | 146 µM
20 | S=c1[nH]cnc2c1c(-c1ccccc1)c(-c1ccccc1)n2C1CCCCC1 | 130 µM
21 | NNc1ncnc2c1c(-c1ccccc1)c(-c1ccccc1)n2C1CCCCC1 | 157 µM
22 | Clc1cccc(-n2c(-c3ccccc3)c(-c3ccccc3)c3c2ncn2cnnc32)c1 | 190 µM
23 | Cc1cccc(Nc2ncnc3c2c(-c2ccccc2)c(-c2ccccc2)n3C2CCCCC2)c1 | 131 µM
24 | Cc1cc(C)n(-c2ncnc3c2c(-c2ccccc2)c(-c2ccccc2)n3C2CCCCC2)n1 | 156 µM
25 | NNc1ncnc2c1c(-c1ccccc1)c(-c1ccccc1)n2-c1ccc(Cl)cc1 | 146 µM
26 | COc1ccc(/C=N/Nc2ncnc3c2c(-c2ccccc2)c(-c2ccccc2)n3-c2cccc(Cl)c2)cc1 | 151 µM
27 | Clc1cccc(-n2c(-c3ccccc3)c(-c3ccccc3)c3c(Nc4ccccc4)ncnc32)c1 | 148 µM
28 | Cc1nnc2c3c(-c4ccccc4)c(-c4ccccc4)n(-c4cccc(Cl)c4)c3ncn12 | 161 µM

Tested on: Hepatitis C virus
Assay: Antiviral activity against HCV genotype 4a ED-43/SG-feo (VYG) replicons infected in human Huh7.5 cells assessed as inhibition of viral replication after 72 hrs by immunofluorescence assay
Assay type: functional, organism-based, Hepacivirus hominis
Conditions: Huh-7, 72 h

Row | IC50 | SMILES
29 | > 150 µM | CC(=O)Nc1c(C#N)c(-c2ccccc2)c(-c2ccccc2)n1C1CCCCC1
30 | > 150 µM | CC(=O)Nc1c(C#N)c(-c2ccccc2)c(-c2ccccc2)n1-c1cccc(Cl)c1
31 | > 150 µM | Cc1cc(C)n(-c2ncnc3c2c(-c2ccccc2)c(-c2ccccc2)n3-c2cccc(Cl)c2)n1
32 | > 150 µM | Cc1nc2c(c(-c3ccccc3)c(-c3ccccc3)n2-c2cccc(Cl)c2)c(=O)[nH]1
33 | > 150 µM | N#Cc1c(-c2ccccc2)c(-c2ccccc2)n(-c2cccc(Cl)c2)c1N
34 | 92.4 µM | Cc1ccccc1Nc1ncnc2c1c(-c1ccccc1)c(-c1ccccc1)n2-c1cccc(Cl)c1
35 | 108 µM | Clc1ccc(-n2c(-c3ccccc3)c(-c3ccccc3)c3c(Cl)ncnc32)cc1
36 | 102 µM | Clc1ccc(/C=N/Nc2ncnc3c2c(-c2ccccc2)c(-c2ccccc2)n3-c2cccc(Cl)c2)cc1
37 | > 150 µM | N#Cc1c(-c2ccccc2)c(-c2ccccc2)n(-c2ccc(Cl)cc2)c1N
38 | > 150 µM | Clc1cccc(-n2c(-c3ccccc3)c(-c3ccccc3)c3c(Cl)ncnc32)c1
39 | > 150 µM | Cc1cccc(Nc2ncnc3c2c(-c2ccccc2)c(-c2ccccc2)n3-c2ccc(Cl)cc2)c1
40 | > 150 µM | Cc1nc2c(c(-c3ccccc3)c(-c3ccccc3)n2-c2ccc(Cl)cc2)c(=O)[nH]1
41 | > 150 µM | Clc1cccc(-n2c(-c3ccccc3)c(-c3ccccc3)c3c(N/N=C/c4ccccc4)ncnc32)c1
42 | > 150 µM | Cc1ccc(Nc2ncnc3c2c(-c2ccccc2)c(-c2ccccc2)n3-c2ccc(Cl)cc2)cc1
43 | > 150 µM | Clc1ccc(-n2c(-c3ccccc3)c(-c3ccccc3)c3c(Nc4ccccc4)ncnc32)cc1
44 | > 150 µM | O=c1[nH]nc2c3c(-c4ccccc4)c(-c4ccccc4)n(-c4ccc(Cl)cc4)c3ncn12
45 | > 150 µM | S=c1[nH]nc2c3c(-c4ccccc4)c(-c4ccccc4)n(C4CCCCC4)c3ncn12
46 | > 150 µM | O=c1[nH]cnc2c1c(-c1ccccc1)c(-c1ccccc1)n2-c1cccc(Cl)c1
47 | > 150 µM | CC(=O)Nc1c(C#N)c(-c2ccccc2)c(-c2ccccc2)n1-c1ccc(Cl)cc1
48 | > 150 µM | S=c1[nH]cnc2c1c(-c1ccccc1)c(-c1ccccc1)n2C1CCCCC1
49 | > 150 µM | NNc1ncnc2c1c(-c1ccccc1)c(-c1ccccc1)n2C1CCCCC1
50 | > 150 µM | Clc1cccc(-n2c(-c3ccccc3)c(-c3ccccc3)c3c2ncn2cnnc32)c1
51 | > 150 µM | Cc1cccc(Nc2ncnc3c2c(-c2ccccc2)c(-c2ccccc2)n3C2CCCCC2)c1
52 | > 150 µM | Cc1cc(C)n(-c2ncnc3c2c(-c2ccccc2)c(-c2ccccc2)n3C2CCCCC2)n1
53 | > 150 µM | NNc1ncnc2c1c(-c1ccccc1)c(-c1ccccc1)n2-c1ccc(Cl)cc1
54 | > 150 µM | COc1ccc(/C=N/Nc2ncnc3c2c(-c2ccccc2)c(-c2ccccc2)n3-c2cccc(Cl)c2)cc1
55 | > 150 µM | Clc1cccc(-n2c(-c3ccccc3)c(-c3ccccc3)c3c(Nc4ccccc4)ncnc32)c1
56 | > 150 µM | Cc1nnc2c3c(-c4ccccc4)c(-c4ccccc4)n(-c4cccc(Cl)c4)c3ncn12

Tested on: Hepatitis C virus
Assay: Antiviral activity against HCV genotype 4a ED-43/SG-feo (VYG) replicons infected in human Huh7.5 cells assessed as inhibition of viral replication at non-toxic dose after 72 hrs by immunofluorescence assay
Assay type: functional, Hepacivirus hominis, Huh-7
Conditions: not given

Row | SMILES | inhibition (INH)
57 | Cc1ccccc1Nc1ncnc2c1c(-c1ccccc1)c(-c1ccccc1)n2-c1cccc(Cl)c1 | 76.7%
58 | Clc1ccc(-n2c(-c3ccccc3)c(-c3ccccc3)c3c(Cl)ncnc32)cc1 | 73.3%
59 | Clc1ccc(/C=N/Nc2ncnc3c2c(-c2ccccc2)c(-c2ccccc2)n3-c2cccc(Cl)c2)cc1 | 63.3%
60 | Clc1cccc(-n2c(-c3ccccc3)c(-c3ccccc3)c3c(Cl)ncnc32)c1 | 0%
61 | NNc1ncnc2c1c(-c1ccccc1)c(-c1ccccc1)n2-c1ccc(Cl)cc1 | 0%

Tested on: not listed separately
Assay: Cytotoxicity against human Huh7.5 cells infected with HCV genotype 4a assessed as cell viability after 72 hrs by trypan blue dye-based phase contrast microscopy
Conditions: Huh-7, 72 h

Row | SMILES | CC50
62 | CC(=O)Nc1c(C#N)c(-c2ccccc2)c(-c2ccccc2)n1C1CCCCC1 | 183 µM
63 | CC(=O)Nc1c(C#N)c(-c2ccccc2)c(-c2ccccc2)n1-c1cccc(Cl)c1 | 146 µM
64 | Cc1cc(C)n(-c2ncnc3c2c(-c2ccccc2)c(-c2ccccc2)n3-c2cccc(Cl)c2)n1 | 147 µM
65 | Cc1nc2c(c(-c3ccccc3)c(-c3ccccc3)n2-c2cccc(Cl)c2)c(=O)[nH]1 | 97 µM
66 | N#Cc1c(-c2ccccc2)c(-c2ccccc2)n(-c2cccc(Cl)c2)c1N | 189 µM
67 | Cc1ccccc1Nc1ncnc2c1c(-c1ccccc1)c(-c1ccccc1)n2-c1cccc(Cl)c1 | 144 µM
68 | Clc1ccc(-n2c(-c3ccccc3)c(-c3ccccc3)c3c(Cl)ncnc32)cc1 | 120 µM
69 | Clc1ccc(/C=N/Nc2ncnc3c2c(-c2ccccc2)c(-c2ccccc2)n3-c2cccc(Cl)c2)cc1 | 131 µM
70 | N#Cc1c(-c2ccccc2)c(-c2ccccc2)n(-c2ccc(Cl)cc2)c1N | 189 µM
71 | Clc1cccc(-n2c(-c3ccccc3)c(-c3ccccc3)c3c(Cl)ncnc32)c1 | 168 µM
72 | Cc1cccc(Nc2ncnc3c2c(-c2ccccc2)c(-c2ccccc2)n3-c2ccc(Cl)cc2)c1 | 1020 µM
73 | Cc1nc2c(c(-c3ccccc3)c(-c3ccccc3)n2-c2ccc(Cl)cc2)c(=O)[nH]1 | 97 µM
74 | Clc1cccc(-n2c(-c3ccccc3)c(-c3ccccc3)c3c(N/N=C/c4ccccc4)ncnc32)c1 | 140 µM
75 | Cc1ccc(Nc2ncnc3c2c(-c2ccccc2)c(-c2ccccc2)n3-c2ccc(Cl)cc2)cc1 | 123 µM
76 | Clc1ccc(-n2c(-c3ccccc3)c(-c3ccccc3)c3c(Nc4ccccc4)ncnc32)cc1 | 127 µM
77 | O=c1[nH]nc2c3c(-c4ccccc4)c(-c4ccccc4)n(-c4ccc(Cl)cc4)c3ncn12 | 160 µM
78 | S=c1[nH]nc2c3c(-c4ccccc4)c(-c4ccccc4)n(C4CCCCC4)c3ncn12 | 188 µM
79 | O=c1[nH]cnc2c1c(-c1ccccc1)c(-c1ccccc1)n2-c1cccc(Cl)c1 | 151 µM
80 | CC(=O)Nc1c(C#N)c(-c2ccccc2)c(-c2ccccc2)n1-c1ccc(Cl)cc1 | 146 µM
81 | S=c1[nH]cnc2c1c(-c1ccccc1)c(-c1ccccc1)n2C1CCCCC1 | 130 µM
82 | NNc1ncnc2c1c(-c1ccccc1)c(-c1ccccc1)n2C1CCCCC1 | 157 µM
83 | Clc1cccc(-n2c(-c3ccccc3)c(-c3ccccc3)c3c2ncn2cnnc32)c1 | 190 µM
84 | Cc1cccc(Nc2ncnc3c2c(-c2ccccc2)c(-c2ccccc2)n3C2CCCCC2)c1 | 131 µM
85 | Cc1cc(C)n(-c2ncnc3c2c(-c2ccccc2)c(-c2ccccc2)n3C2CCCCC2)n1 | 156 µM
86 | NNc1ncnc2c1c(-c1ccccc1)c(-c1ccccc1)n2-c1ccc(Cl)cc1 | 146 µM
87 | COc1ccc(/C=N/Nc2ncnc3c2c(-c2ccccc2)c(-c2ccccc2)n3-c2cccc(Cl)c2)cc1 | 151 µM
88 | Clc1cccc(-n2c(-c3ccccc3)c(-c3ccccc3)c3c(Nc4ccccc4)ncnc32)c1 | 148 µM
89 | Cc1nnc2c3c(-c4ccccc4)c(-c4ccccc4)n(-c4cccc(Cl)c4)c3ncn12 | 161 µM

From ChEMBL document CHEMBL3797151, “Design, synthesis, assessment, and molecular docking of novel pyrrolopyrimidine (7-deazapurine) derivatives as non-nucleoside hepatitis C virus NS5B polymerase inhibitors” (Bioorg Med Chem, 2016)
